The structures appear in SMILES notation. Where a name gives a salt, the structure may show the parent alone.

This note sets out measurements from patent US20060211761A1, “Hmg-coa-reductase inhibitors” (priority 2002, published 2006).

The target in the first assay is HMG CoA Reductase. The assay is described as follows: HMG CoA reductase inhibition, similar experiments with phenylhydroxy compounds of U.S. Pat. No. 5,385,929, Table 2. The assay is classed as biochemical. The settings on record: compared to atorvastatin. The procedure:
(§1) Res. Comm., 50, 859 (1973).
(§2) HMG-CoA reductase is regarded as a rate-limiting enzyme in cholesterol biosynthesis, catalyzing the following reaction: [^14C]HMG-CoA+2NADPH+2H+[^14C]mevanolate+CoA+2NADP+microsomes, utilizing 2.5 mM [^14C] HMG-CoA as a substrate.
(§3) The reaction was carried out in presence of 100 mM KH2PO4, 20 mM G-6-P, 2.5 mM NADPH, 10 mM EDTA, 5 mM DTT and […], at 37° C. for 15 minutes and quantitating [^14C] mevalonate as an end product.
By IC50 is commonly meant the concentration that inhibits the measured activity by half. `CC(C)c1c(C(=O)Nc2cccc(O)c2)c(-c2ccccc2)c(-c2ccc(F)cc2)n1CCC(O)CC(O)CC(=O)O` (stereo not drawn) [Meta-hydroxyatorvastatin] showed an IC50 of 0.199 nM. For `CC(C)c1c(C(=O)Nc2ccccc2O)c(-c2ccccc2)c(-c2ccc(F)cc2)n1CC[C@@H](O)C[C@@H](O)CC(=O)O` [Ortho-hydroxyatorvastatin], the IC50 came out at 0.264 nM. On to `CC(C)c1c(C(=O)Nc2ccc(O)cc2)c(-c2ccccc2)c(-c2ccc(F)cc2)n1CC[C@@H](O)C[C@@H](O)CC(=O)O` [Para-hydroxyatorvastatin], for which the 50% inhibitory concentration (IC50) stood at 0.476 nM.

For another assay, the target named is HMG-CoA reductase. The assay is described as follows: in-vitro HMG-CoA reductase enzyme assay ([14C]mevalonate formation, liver microsomes), Table 1. The assay is classed as biochemical. The settings on record: preincubated 37° C. 30 minutes, [14C] HMG-CoA substrate. How it is done:
as §1, §2, §3
In general terms: Microsomes from liver hold many membrane-bound enzymes, among them those of drug oxidation.
The compound `COc1cc(NC(=O)c2c(-c3ccccc3)c(-c3ccc(F)cc3)n(CC[C@@H](O)C[C@@H](O)CC(=O)O)c2C(C)C)cc(OC)c1` [Example 1, 7-[3-(3,5-dimethoxyphenylcarbamoyl)-5-(4-fluorophenyl)-2-(1-methylethyl)4-phenyl-pyrrol-1-yl]-3R,5R-dihydroxy-heptanoic acid calcium salt] showed a 50% inhibitory concentration (IC50) of 0.022 nM.

In the case of `COc1ccc(NC(=O)c2c(-c3ccccc3)c(-c3ccc(F)cc3)n(CC[C@@H](O)C[C@@H](O)CC(=O)O)c2C2CC2)c(OC)c1` [S.No. 3, 7-[3-(2,4-dimethoxyphenylcarbamoyl)-5-(4-fluorophenyl)-2-(cyclopropyl)-4-phenyl-pyrrol-1-yl]-3R,5R-dihydroxy-heptanoic acid calcium salt], it took 0.00948 nM to reach half-maximal inhibition (IC50). Compound `COc1ccc(NC(=O)c2c(-c3ccccc3)c(-c3ccccc3)n(CC[C@@H](O)C[C@@H](O)CC(=O)O)c2C(C)C)c(OC)c1` [S.No. 5, 7-[3-(2.4-dimethoxyphenylcarbamoyl)-4.5-diphenyl-2-(1-methylethyl-pyrrol-1-yl]-3R,5R-dihydroxy-heptanoic acid calcium salt] gave an IC50 of 0.0563 nM.
